The values that follow come from patent publication US7977481B2, “Pyrimidinyl-thiophene kinase modulators” (SGX Pharmaceuticals, Inc., priority 2005, dated 2011).

Bounds are passed on as bounds.

One assay has as its target T1, JAK2 KD kinase (Homo sapiens, UniProt O60674).
T1 construct: JAK2 KD (kinase domain); inferred from Ni-NTA capture and imidazole elution; made in house; host or cells: Sf9 insect cells
As to the kind of experiment: JAK2 Luminescence-Based ATP Depletion Enzyme Assay (JAK2-WT). Particulars: 10 μM ATP. In kind it is biochemical. On the procedure: (§1) JAK2 Luminescence-Based ATP Depletion Enzyme Assay
(§2) Materials: JAK3tide peptide substrate=GGEEEEYFELVKKKK (Biopeptide, San Diego, Calif.), ATP (Sigma Cat#A-3377, FW=551), HEPES buffer, pH 7.6, 10% Brij 35 (Calbiochem Cat#203728), MgCl2, Staurosporine (Streptomyces sp. Sigma Cat#85660-1MG), white Corning (Costar) 384-well flat bottom plate (VWR Cat#29444-088), JAK2 KD (kinase domain) or JAK2 JH1JH2 V617F kinase (see below), Kinase-Glo™ (Promega Cat#V6712).
(§3) Stock Solutions: 5 mM JAK3tide peptide (9.86 mg/ml in 100 mM HEPES, pH 7.6), stored at −20° C.; 100 mM HEPES buffer, pH 7.6, 10% Brij 35; 10 mM ATP (5.51 mg/ml in 100 mM HEPES, pH 7.6) stored at −20° C. (diluted 50 μl into total of 10 ml 100 mM HEPES, pH 7.6, daily=50 μM ATP working stock); 100 mM MgCl2; 200 μM Staurosporine, 2× Kinase-Glo™ reagent (made fresh or stored at −20° C.).
(§4) Standard Assay Conditions for 384-well format (20 μl kinase reaction, 40 μl detection reaction): 10 mM MgCl2; 0.1 mM JAK3tide peptide (or, 0.5 mM JAK3tide peptide for JAK2 JH1JH2 V617F assay); 1 μl test compound (in 100% DMSO); 0.4 μg/ml JAK2 KD kinase or 12 μg/ml JAK2 JH1JH2 V617F kinase; 10 μM ATP; 100 mM HEPES+0.01% Brij, pH 7.6. Positive controls contained 5% DMSO with no test compound. Negative controls contained 10 μM staurosporine. The kinase reactions were initiated at time t=0 by the addition of ATP. Kinase reactions were incubated at 21-23° C. for 30 min, after which 20 μl of Kinase-Glo™ reagent were added to each well to quench the kinase reaction and initiate the luminescence reaction. After a 20 min incubation at 21-23° C., the luminescence was detected in a plate-reading luminometer (Tecan Ultra Evolution).
(§5) The pellet of Sf9 insect cells produced from a 6 L expression of Jak2 was resuspended in a buffer containing 50 mM Tris-HCl pH 8.5, 250 mM NaCl, 5% Glycerol, 0.2% β-octylglucoside, 5 mM β-mercaptoethanol (or with ligand added to the buffer eg. 5 mM ATP and 10 mM MgCl2; 0.05 mM compound of the invention) in a volume of approximately 40 mL per 1 L of original culture. One tablet of Roche Complete, EDTA-free protease inhibitor cocktail (Cat. #1873580) was added per 1 L of original culture. The suspension was then stirred for 1 hour at 4° C. Debris was removed by centrifugation for 30 minutes at 39,800 g at 4° C. The supernatant was decanted into a 500 mL beaker and 10 mL of 50% Qiagen Ni-NTA Agarose (Cat. #30250) pre-equilibrated in 50 mM Tris-HCl pH 8.5, 250 mM NaCl, 5% Glycerol, 0.2% β-octylglucoside, 5 mM β-mercaptoethanol was added and stirred for 30 minutes at 4° C. The sample was poured through a drip column at 4° C. and washed with 10 column volumes (CV) of 50 mM Tris-HCl pH 8.5, 250 mM NaCl, 5% Glycerol, 0.2% β-octylglucoside, 5 mM β-mercaptoethanol. The protein was eluted in 5 mL fractions using 5 CV of the same buffer containing 250-500 mM Imidazole. Fractions were pooled by SDS-PAGE analysis and the protein concentration determined by a Bradford assay. 5 mM TCEP was added to the pool and the protein sample was concentrated to ˜8 mL by centrifugation in an Amicon Ultra-15 10,000 Da MWCO centrifugal filter unit (Cat. #UFC901024). The concentrated protein was applied to a GE Healthcare HiLoad 16/60 Superdex 75 or 200 prep grade column (Cat. #17-1068-01, Cat. #17-1069-01) equilibrated in 20 mM Tris-HCl pH 8.5, 250 mM NaCl, and 1 mM DTT. Fractions were run on a SDS-PAGE gel and the cleanest fractions were pooled. The protein was concentrated to approximately 6.5-10 mg/mL. Samples in the final buffer (20 mM Tris-HCl pH 8.5, 250 mM NaCl, 1 mM DTT; [or with ligand added eg. 2 mM ATP/5 mM MgCl2 or 0.05 mM compound of the invention]) are delivered fresh to crystallization and stored at 4° C. or flash frozen in liquid nitrogen (as 120 μL aliquots) and stored at −80° C.

A further assay deals with T2, JAK2 JH1JH2 V617F kinase (Homo sapiens, UniProt O60674, V617F).
T2 construct: JAK2 JH1JH2 V617F kinase; inferred from Ni-NTA capture and imidazole elution; made in house; host or cells: Sf9 insect cells
As to the kind of experiment: JAK2 Luminescence-Based ATP Depletion Enzyme Assay (JAK2-V617F). Particulars: 10 μM ATP. In kind it is biochemical. How it is done: as §1, §2, §3, §4, §5

T1 sequence (O60674 849-1124 limits assumed): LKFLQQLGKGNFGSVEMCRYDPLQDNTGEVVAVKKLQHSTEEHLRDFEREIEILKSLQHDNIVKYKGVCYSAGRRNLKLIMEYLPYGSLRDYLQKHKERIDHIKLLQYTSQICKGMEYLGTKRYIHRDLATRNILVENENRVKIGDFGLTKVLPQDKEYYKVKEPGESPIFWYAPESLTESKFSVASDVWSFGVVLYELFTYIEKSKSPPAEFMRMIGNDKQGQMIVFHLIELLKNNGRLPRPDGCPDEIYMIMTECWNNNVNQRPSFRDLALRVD
T2 sequence (O60674 536-1132 V617F limits assumed): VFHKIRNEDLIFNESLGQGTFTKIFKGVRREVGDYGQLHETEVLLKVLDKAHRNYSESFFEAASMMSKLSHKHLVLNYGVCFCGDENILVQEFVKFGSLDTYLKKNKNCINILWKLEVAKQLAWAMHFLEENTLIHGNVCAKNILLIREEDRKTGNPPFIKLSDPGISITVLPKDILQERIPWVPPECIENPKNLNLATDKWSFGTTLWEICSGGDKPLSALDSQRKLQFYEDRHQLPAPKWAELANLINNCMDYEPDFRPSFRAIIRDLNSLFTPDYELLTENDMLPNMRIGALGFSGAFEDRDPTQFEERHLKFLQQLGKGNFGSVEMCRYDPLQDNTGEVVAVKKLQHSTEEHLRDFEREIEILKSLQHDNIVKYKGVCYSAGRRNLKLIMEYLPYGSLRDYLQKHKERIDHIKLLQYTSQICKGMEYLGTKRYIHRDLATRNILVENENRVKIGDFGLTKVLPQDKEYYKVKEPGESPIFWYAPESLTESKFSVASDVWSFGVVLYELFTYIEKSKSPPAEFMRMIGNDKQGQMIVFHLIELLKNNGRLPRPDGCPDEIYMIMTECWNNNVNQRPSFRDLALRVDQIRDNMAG

Turning to `C[C@@H](NC(=O)c1ccc(-c2ccnc(Nc3cccc(CN4CCN(CCO)CC4)c3)n2)s1)c1ccccc1`, the IC50 (usually the concentration that inhibits the measured activity by half) against JAK2 KD kinase is below 100 nM.

As to `O=C(NCc1ccccc1)c1ccc(-c2ccnc(Nc3ccc(CCO)cc3)n2)s1`, the 50% inhibitory concentration (IC50) is below 500 nM against JAK2 JH1JH2 V617F kinase and below 100 nM against JAK2 KD kinase.

On to `CCN(CCC#N)S(=O)(=O)c1ccc(-c2ccnc(Nc3cccc(C(C)O)c3)n2)s1` (stereo not drawn), for which the results for the IC50 against JAK2 JH1JH2 V617F kinase and at JAK2 KD kinase were below 500 nM and below 100 nM, respectively.

For the compound `CC(O)c1cccc(Nc2nccc(-c3ccc(S(=O)(=O)N(C)C)s3)n2)c1` (stereo not drawn), the IC50 at JAK2 JH1JH2 V617F kinase is below 500 nM; against JAK2 KD kinase, below 100 nM.

For `CC(O)c1cccc(Nc2nccc(-c3ccc(-c4ccncc4)s3)n2)c1` (stereo not drawn), on JAK2 KD kinase, the IC50 is below 100 nM.

Consider `CCN(CCC#N)S(=O)(=O)c1ccc(-c2ccnc(Nc3cccc(C)c3)n2)s1`, for which the IC50 was below 500 nM at JAK2 JH1JH2 V617F kinase and below 100 nM against JAK2 KD kinase.

For `C[C@@H](NC(=O)c1ccc(-c2ccnc(Nc3cccc(CN4CCC(O)CC4)c3)n2)s1)c1ccccc1`, the IC50 is below 500 nM against JAK2 JH1JH2 V617F kinase and below 100 nM against JAK2 KD kinase.

As for `CCN(CCC#N)C(=O)c1ccc(-c2ccnc(Nc3cccc(C(C)O)c3)n2)s1` (stereo not drawn), the IC50 against JAK2 JH1JH2 V617F kinase is below 500 nM; against JAK2 KD kinase, below 100 nM.

For the compound `CC(O)c1cccc(Nc2nccc(-c3ccc(-c4cccc(CC#N)c4)s3)n2)c1` (stereo not drawn), the IC50 at JAK2 JH1JH2 V617F kinase is below 500 nM; against JAK2 KD kinase, below 100 nM.

On to `CCC(=O)Nc1ccc(-c2ccnc(Nc3cccc(C)c3)n2)s1`, for which, at JAK2 KD kinase, the IC50 is below 100 nM.

Take `CN(Cc1ccccc1)C(=O)c1ccc(-c2ccnc(Nc3ccc(CCO)cc3)n2)s1`: on JAK2 KD kinase, the IC50 was below 100 nM.

For `CN(C)C1CCN(c2cccc(Nc3nccc(-c4ccc(C(=O)NCc5ccco5)s4)n3)c2)C1` (stereo not drawn), the IC50 on JAK2 JH1JH2 V617F kinase is below 500 nM; at JAK2 KD kinase, below 100 nM.

On JAK2 KD kinase, `OC1CCN(Cc2cccc(Nc3nccc(-c4ccc(CNc5ccccc5Cl)s4)n3)c2)CC1` had an IC50 below 100 nM.

Turning to `CC(O)c1cccc(Nc2nccc(-c3ccc(S(=O)(=O)Cc4ccccc4)s3)n2)c1` (stereo not drawn), on JAK2 KD kinase, the IC50 is below 100 nM.

Compound `CC(O)c1cccc(Nc2nccc(-c3ccc(-c4cccnc4)s3)n2)c1` (stereo not drawn) yielded an IC50 against JAK2 KD kinase below 100 nM.

Consider `CNC(=O)c1ccc(-c2ccc(-c3ccnc(Nc4cccc(C(C)O)c4)n3)s2)cc1` (stereo not drawn), for which the half-maximal inhibitory concentration (IC50) on JAK2 KD kinase is below 100 nM.
